Experimental data from PubChem BioAssay AID2060898 (Molecular Pharmacology Branch, DTP, NCI, 2025).
Where “and” joins values, the source holds several entries; their conditions need not be identical. Identical values can stand only once.

System: 616215-338-R-J1-PDC complex spheroid viability
Assay: Anticancer human tumor 616215-338-R-J1-PDC patient-derived colon adenocarcinoma cell line growth inhibition [RAS]
Settings: for viability, T/C: stronger effect = lower value
Method in brief: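 Multi-cell-type spheroids: tumor cells plus HUVEC endothelial cells and mesenchymal stem cells. RAS-pathway inhibitors were combined with targeted agents, each dosed in half-log steps down from clinical Cmax, or from 10 microM when Cmax was unknown.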
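Further: spheroids exposed to agents for seven days before viability readout.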
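Wherever viability, T/C is given: 100% = DMSO vehicle control viability.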

Work on O=C(c1ccc(F)c(F)c1Nc1ccc(I)cc1F)N1CC(O)([C@@H]2CCCCN2)C1 + CCn1c(-c2cc(N3CCN(C)CC3)cnc2C(C)OC)c2c3cc(ccc31)-c1csc(n1)CC(NC(=O)C1CC1C)C(=O)N1CCCC(N1)C(=O)OCC(C)(C)C2 yielded an IC50 (curve of first compound, second compound 0.000949 µM) of 41.4 nM, an IC50 (curve of first compound, second compound 0.003 µM) of 22.6 nM and an IC50 (curve of first compound, second compound 0.00949 µM) of 6.67 nM. It also gave an IC50 (curve of first compound, second compound 0.03 µM) of less than 3.16 nM, an IC50 (curve of first compound, second compound 0.0949 µM) of less than 3.16 nM and an IC50 (curve of first compound, second compound 0.3 µM) of less than 3.16 nM. It also gave a viability, T/C (second compound 0.000949 µM, first compound 0.00316 µM) of 115%, a viability, T/C (second compound 0.000949 µM, first compound 0.01 µM) of 87.5% and a viability, T/C (second compound 0.000949 µM, first compound 0.0316 µM) of 58.6%. The viability, T/C (second compound 0.000949 µM, first compound 0.1 µM) was 27%, the viability, T/C (second compound 0.000949 µM, first compound 0.316 µM) was 12.1% and the viability, T/C (second compound 0.000949 µM, first compound 1 µM) was 3.52%. The viability, T/C (second compound 0.003 µM, first compound 0.00316 µM) was 101%, the viability, T/C (second compound 0.003 µM, first compound 0.01 µM) was 73.3% and the viability, T/C (second compound 0.003 µM, first compound 0.0316 µM) was 39%. It also gave a viability, T/C (second compound 0.003 µM, first compound 0.1 µM) of 20.6%, a viability, T/C (second compound 0.003 µM, first compound 0.316 µM) of 5.3% and a viability, T/C (second compound 0.003 µM, first compound 1 µM) of 2.66%. The viability, T/C (second compound 0.00949 µM, first compound 0.00316 µM) was 66.8%, the viability, T/C (second compound 0.00949 µM, first compound 0.01 µM) was 39.9% and the viability, T/C (second compound 0.00949 µM, first compound 0.0316 µM) was 24.2%. For the same compound, the viability, T/C (second compound 0.00949 µM, first compound 0.1 µM) was 15.7%, the viability, T/C (second compound 0.00949 µM, first compound 0.316 µM) was 2.25% and the viability, T/C (second compound 0.00949 µM, first compound 1 µM) was 2.11%. It also gave a viability, T/C (second compound 0.03 µM, first compound 0.00316 µM) of 32.5%, a viability, T/C (second compound 0.03 µM, first compound 0.01 µM) of 30.3% and a viability, T/C (second compound 0.03 µM, first compound 0.0316 µM) of 21.2%. For the same compound, the viability, T/C (second compound 0.03 µM, first compound 0.1 µM) was 3.47%, the viability, T/C (second compound 0.03 µM, first compound 0.316 µM) was 1.98% and the viability, T/C (second compound 0.03 µM, first compound 1 µM) was 1.79%. For the same compound, the viability, T/C (second compound 0.0949 µM, first compound 0.00316 µM) was 30.1%, the viability, T/C (second compound 0.0949 µM, first compound 0.01 µM) was 19.2% and the viability, T/C (second compound 0.0949 µM, first compound 0.0316 µM) was 4.14%. The viability, T/C (second compound 0.0949 µM, first compound 0.1 µM) was 1.63%, the viability, T/C (second compound 0.0949 µM, first compound 0.316 µM) was 1.65% and the viability, T/C (second compound 0.0949 µM, first compound 1 µM) was 1.53%. It also gave a viability, T/C (second compound 0.3 µM, first compound 0.00316 µM) of 25.9%, a viability, T/C (second compound 0.3 µM, first compound 0.01 µM) of 18.8% and a viability, T/C (second compound 0.3 µM, first compound 0.0316 µM) of 2.37%. The viability, T/C (second compound 0.3 µM, first compound 0.1 µM) was 1.55%, the viability, T/C (second compound 0.3 µM, first compound 0.316 µM) was 1.12% and the viability, T/C (second compound 0.3 µM, first compound 1 µM) was 1.16%.

O=C(c1ccc(F)c(F)c1Nc1ccc(I)cc1F)N1CC(O)([C@@H]2CCCCN2)C1 was tested, and the viability, T/C (compound 0.00316 µM) was 111% [middle of 4 runs], the viability, T/C (compound 0.01 µM) was 102% (2×) and 95.7% and 113% and the viability, T/C (compound 0.0316 µM) was 81.5% [middle of 4 runs]. The viability, T/C (compound 0.1 µM) was 41.5% [middle of 4 runs], the viability, T/C (compound 0.316 µM) was 19.9% [middle of 4 runs] and the viability, T/C (compound 1 µM) was 5.56% [middle of 4 runs]. The IC50 (curve of compound) was 78 nM [middle of 4 runs].
